# Experimental data reported in publication PMC7162861, “Synthesis, cytotoxicity, pharmacokinetic profile, binding with DNA and BSA of new imidazo[1,2-a]pyrazine-benzo[d]imidazol-5-yl hybrids” (Scientific Reports, 2020).
# Legend:
# [1] = Experimental log P, shake-flask method; format: physicochemical; conditions: n-octanol/phosphate buffer pH 7.4, read-out: Exp. Log P
# Procedure: Partition coefficients or experimental log P values of all synthesized compounds (9–23, 30 and 31) were calculated using the shake-flask method. Log P values were determined using n-octanol and phosphate buffer (pH = 7.4) at 10:1 ratio of volumes. Stock solutions (10^−3 M) of compounds were prepared in DMSO. Glass vials were used to make final solutions i.e. stock solution (250 µL) and phosphate buffer (125 µL). To record the absorbance, wavelength was selected based on λmax of the respective compound. Initial absorbance (Ai) for every compound was noted consuming the stock solution in the buffer phase. Now added n-octanol to every vial and shaken well using a mechanical shaker for 50 minutes. To get separation of both phases, glass vials were centrifuged for 35 min. at 2500 rpm. Then, the layer of octanol was separated from glass vial. The final absorbance (Af) of each compound was recorded by using the buffer layer. The values of P for compounds were determined by the following equation (Eq. 8):8 P=Ai−Af/Af×Vw/Vo
structure (smiles),measurement,setting,value
"O=Cc1ccc(-c2cn3ccnc3c(-c3ccc4c(c3)ncn4C3CCCCC3)n2)cc1 [Compound 11, 4-(8-(1-cyclohexyl-1H-benzo[d]imidazol-5-yl)imidazo[1,2-a]pyrazin-6-yl)benzaldehyde]",melting point,,201 to 203 °C
same,logP,[1],0.23
